Laboratory results from PubChem BioAssay (NCI).
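Briefly, cells in 96-well plates were exposed to five compound concentrations for 48 h, and endpoints were estimated by linear interpolation. TGI denotes the concentration required for complete inhibition of growth.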

What was measured:
Test in all cases: DTP human tumour cell line panel, 48 h
[1] = tested on: UACC-62 melanoma
[2] = tested on: SR leukemia
[3] = tested on: U251 CNS
[4] = tested on: SW-620 colon
[5] = tested on: OVCAR-5 ovarian
[6] = tested on: EKVX NSCLC
[7] = tested on: MDA-MB-435
[8] = tested on: TK-10 renal
[9] = tested on: NCI-H460 lung
[10] = tested on: PC-3 prostate

SMILES | TGI [1] | TGI [2] | TGI [3] | TGI [4] | TGI [5] | TGI [6] | TGI [7] | TGI [8] | TGI [9] | TGI [10]
CN(C)c1nc(Cl)c2c(-c3ccccc3)c(-c3ccccc3)oc2n1 | > 100 µM | > 100 µM | > 100 µM | > 100 µM | > 100 µM | > 100 µM | > 100 µM | > 100 µM | – | –
COc1cc(CNNC(N)=S)cc(OC)c1OC | – | > 100 µM | > 100 µM | > 100 µM | > 100 µM | > 100 µM | > 100 µM | > 100 µM | > 100 µM | > 100 µM
Cc1ccc(S(=O)(=O)NNCNC(=O)c2ccccc2)cc1 | > 100 µM | 33.1 µM | > 100 µM | > 100 µM | > 100 µM | > 100 µM | > 100 µM | > 100 µM | – | > 100 µM
Cc1ccnc(NC(NC(=O)c2ccccc2)(C(F)(F)F)C(F)(F)F)c1 | > 100 µM | > 100 µM | > 100 µM | > 100 µM | > 100 µM | > 100 µM | > 100 µM | > 100 µM | – | > 100 µM
CCOC(=O)NC(Nc1ccc(C(=O)OCC)cc1)(C(F)(F)F)C(F)(F)F | > 100 µM | > 100 µM | > 100 µM | > 100 µM | > 100 µM | – | > 100 µM | > 100 µM | > 100 µM | > 100 µM
COc1cc(/C=c2\sc3n(c2=O)C(c2ccc(Cl)cc2)C2=C(CCCC2C)N=3)cc(OC)c1OC (stereo unspecified) | > 100 µM | > 100 µM | > 100 µM | > 100 µM | > 100 µM | > 100 µM | > 100 µM | > 100 µM | – | > 100 µM
COc1ccc(SCc2cc(OCc3ccccc3)c(OCc3ccccc3)c(OCc3ccccc3)c2)cc1 | – | – | 3.22 µM | – | 3.4 µM | 4.37 µM | 3.33 µM | 3.32 µM | – | 3.37 µM
CCOC(=O)CCC(NC(=O)c1ccc(OCc2ccc3nc(-c4ccccc4)c(Cl)nc3c2)cc1)C(=O)OCC (stereo unspecified) | > 31.6 µM | > 31.6 µM | > 31.6 µM | > 31.6 µM | > 31.6 µM | > 31.6 µM | > 31.6 µM | > 31.6 µM | > 31.6 µM | –
CC(=O)c1cc2ccccc2oc1=O | – | > 100 µM | > 100 µM | > 100 µM | > 100 µM | > 100 µM | > 100 µM | > 100 µM | > 100 µM | > 100 µM
CCOC(=O)c1ccc(NCC#CCN2CCCCC2)cc1 | > 100 µM | > 100 µM | > 100 µM | > 100 µM | > 100 µM | > 100 µM | > 100 µM | – | – | > 100 µM
O=C(NNC(=S)NC1CCCCC1)c1csc(NC(=S)NC2CCCCC2)n1 | 22.6 µM | > 100 µM | 20.2 µM | 19.5 µM | 40.1 µM | > 100 µM | 26.6 µM | > 100 µM | – | 24.9 µM
O=c1/c(=C/c2ccc(-c3ccc(Cl)cc3Cl)o2)sc2n1[C@@H](c1ccc(Cl)cc1)C=C(c1cc(F)c(Cl)cc1Cl)N=2 | > 100 µM | – | > 100 µM | > 100 µM | > 100 µM | – | > 100 µM | > 100 µM | > 100 µM | > 100 µM
COc1cc(Cc2nccc3cc(OC)c(OC)cc23)c(N=NN(C)C)cc1OC | 28.9 µM | – | 72 µM | 37.9 µM | 40.9 µM | 42.4 µM | 47.3 µM | 44.1 µM | 22.3 µM | 56.8 µM
COc1ccc(-c2cc3[nH]nc(N)c3c(=O)o2)cc1 | – | > 100 µM | > 100 µM | > 100 µM | > 100 µM | > 100 µM | – | > 100 µM | > 100 µM | –
Cc1cc(S(=O)(=O)Nc2nc3ccccc3c(=O)n2N)c(S)cc1Cl | 49.2 µM | – | > 100 µM | > 100 µM | > 100 µM | > 100 µM | > 100 µM | > 100 µM | > 100 µM | > 100 µM
COc1ccccc1C(=O)c1c(NCc2ccccc2)c(=O)c1=O | > 100 µM | – | > 100 µM | 37.8 µM | > 100 µM | > 100 µM | > 100 µM | > 100 µM | > 100 µM | > 100 µM
